Test results reported in patent US12077503B2, “Substituted cyclic amides and their use as herbicides” (FMC CORPORATION, priority 2015, dated 2024).

How the values were obtained:
Type in all cases: in vivo
[1] = test system: ragweed (common ragweed, Ambrosia elatior); assay: Test A preemergence; settings: Ambrosia artemisiifolia, pre-emergence, 240 h, Preemergence
In short: (§1)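 Treatment is preemergence as a directed soil spray after planting, or postemergence at the one- to two-leaf stage, with test chemical in a non-phytotoxic solvent mixture plus surfactant. Plants stay in the greenhouse about 10 d before visual injury scoring on a 0 to 100 scale versus untreated controls.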

[2] = test system: barnyardgrass (Echinochloa crus-galli); assay: Test A preemergence; settings: Echinochloa crus-galli, pre-emergence, 240 h, Preemergence
In short: as §1

[3] = test system: pigweed (Amaranthus retroflexus); assay: Test A preemergence; settings: Amaranthus retroflexus, pre-emergence, 240 h, Preemergence
[4] = test system: giant foxtail (Setaria faberii); assay: Test A preemergence; settings: Setaria faberi, pre-emergence, 240 h, Preemergence
In short: as §1

Kochia (Kochia scoparia) [5] = assay: Test A preemergence; settings: Bassia scoparia, pre-emergence, 240 h, Preemergence
In short: as §1

[6] = test system: ryegrass, Italian (Italian ryegrass, Lolium multiflorum); assay: Test A preemergence; settings: Lolium multiflorum, pre-emergence, 240 h, Preemergence
In short: as §1

[7] = test system: sedge, umbrella (small-flower umbrella sedge, Cyperus difformis); assay: Test B flooded paddy test; settings: Cyperus difformis, 360 h, Flood, 250 g ai/ha; visually evaluated after 13 to 15 d; read-out: Plant response rating, Sedge, Umbrella (0 to 100 scale where 0 is no effect and 100 is complete control)
In short: (§2)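 Rating scale 0–100 (visual, vs untreated controls) after a 13–15 d greenhouse period; application to the flood layer, 3 cm above soil and maintained; plants at 2-leaf stage when treated.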

[8] = test system: ducksalad (Heteranthera limosa); assay: Test B flooded paddy test; settings: Heteranthera limosa, 360 h, Flood, 250 g ai/ha; visually evaluated after 13 to 15 d; read-out: Plant response rating, Ducksalad (0 to 100 scale where 0 is no effect and 100 is complete control)
In short: as §2

[9] = test system: barnyardgrass (Echinochloa crus-galli); assay: Test B flooded paddy test; settings: Echinochloa crus-galli, 360 h, Flood, 250 g ai/ha; visually evaluated after 13 to 15 d; read-out: Plant response rating, Barnyardgrass (0 to 100 scale where 0 is no effect and 100 is complete control)
In short: as §2

rice (Oryra sativa) = assay: Test B flooded paddy test; settings: Oryza sativa, 360 h, Flood, 250 g ai/ha; visually evaluated after 13 to 15 d; read-out: Plant response rating, Rice (0 to 100 scale where 0 is no effect and 100 is complete control)
In short: as §2

[10] = test system: wheat (Triticum aestivum); assay: Test A postemergence; settings: Triticum aestivum, post-emergence, 240 h, Postemergence
In short: as §1

[11] = test system: ragweed (common ragweed, Ambrosia elatior); assay: Test A postemergence; settings: Ambrosia artemisiifolia, post-emergence, 240 h, Postemergence
In short: as §1

[12] = test system: barnyardgrass (Echinochloa crus-galli); assay: Test A postemergence; settings: Echinochloa crus-galli, post-emergence, 240 h, Postemergence
In short: as §1

[13] = test system: Galium (catchweed bedstraw, Galium aparine); assay: Test A postemergence; settings: Galium, post-emergence, 240 h, Postemergence
In short: as §1

[14] = test system: pigweed (Amaranthus retroflexus); assay: Test A postemergence; settings: Amaranthus retroflexus, post-emergence, 240 h, Postemergence
In short: as §1

[15] = test system: giant foxtail (Setaria faberii); assay: Test A postemergence; settings: Setaria faberi, post-emergence, 240 h, Postemergence
In short: as §1

Kochia (Kochia scoparia) [16] = assay: Test A postemergence; settings: Bassia scoparia, post-emergence, 240 h, Postemergence
In short: as §1

[17] = test system: ryegrass, Italian (Italian ryegrass, Lolium multiflorum); assay: Test A postemergence; settings: Lolium multiflorum, post-emergence, 240 h, Postemergence
In short: as §1

corn (Zea mays) = assay: Test A postemergence; settings: Zea mays, post-emergence, 240 h, Postemergence
In short: as §1

[18] = test system: blackgrass (Alopecurus myosuroides); assay: Test A postemergence; settings: Alopecurus myosuroides, post-emergence, 240 h, Postemergence
In short: as §1

CN1C[C@H](c2ccc(C(F)(F)F)cc2)[C@@H](C(=O)Nc2cccc(F)n2)C1=O [Compound 1400] gave a pest or weed control at 31 g/ha ([1]; 31 g ai/ha, 0 to 100 scale where 0 is no effect and 100 is complete control, read-out: Ragweed plant response rating) of 0%, a pest or weed control at 125 g/ha ([1]; 125 g ai/ha, 0 to 100 scale (0 no effect, 100 complete control), read-out: Plant response rating, Ragweed) of 70% and a pest or weed control at 31 g/ha ([2]; 31 g ai/ha, 0 to 100 scale where 0 is no effect and 100 is complete control, read-out: Barnyardgrass plant response rating) of 90%. For the same molecule, the pest or weed control at 125 g/ha ([2]; 125 g ai/ha, 0 to 100 scale (0 no effect, 100 complete control), read-out: Plant response rating, Barnyardgrass) was 90%, the pest or weed control at 31 g/ha ([3]; 31 g ai/ha, 0 to 100 scale where 0 is no effect and 100 is complete control, read-out: Pigweed plant response rating) was 80% and the pest or weed control at 125 g/ha ([3]; 125 g ai/ha, 0 to 100 scale (0 no effect, 100 complete control), read-out: Plant response rating, Pigweed) was 80%. The pest or weed control at 31 g/ha ([4]; 31 g ai/ha, 0 to 100 scale where 0 is no effect and 100 is complete control, read-out: Foxtail, Giant plant response rating) was 90%, the pest or weed control at 125 g/ha ([4]; 125 g ai/ha, 0 to 100 scale (0 no effect, 100 complete control), read-out: Plant response rating, Foxtail, Giant) was 90% and the pest or weed control at 31 g/ha (Kochia (Kochia scoparia) [5]; 31 g ai/ha, 0 to 100 scale where 0 is no effect and 100 is complete control, read-out: Kochia plant response rating) was 60%. It also gave a pest or weed control at 125 g/ha (Kochia (Kochia scoparia) [5]; 125 g ai/ha, 0 to 100 scale (0 no effect, 100 complete control), read-out: Plant response rating, Kochia) of 70%, a pest or weed control at 31 g/ha ([6]; 31 g ai/ha, 0 to 100 scale where 0 is no effect and 100 is complete control, read-out: Ryegrass, Italian plant response rating) of 0% and a pest or weed control at 125 g/ha ([6]; 125 g ai/ha, 0 to 100 scale (0 no effect, 100 complete control), read-out: Plant response rating, Ryegrass, Italian) of 30%. The pest or weed control at 250 g/ha [7] was 0%, the pest or weed control at 250 g/ha [8] was 100% and the pest or weed control at 250 g/ha [9] was 80%. For the same molecule, the pest or weed control at 250 g/ha (rice (Oryra sativa)) was 0%, the plant injury at 31 g/ha ([10]; 31 g ai/ha, 0 is no effect, 100 is complete control, read-out: Wheat plant response rating (0 to 100 scale)) was 0% and the plant injury at 125 g/ha ([10]; 125 g ai/ha, visual injury after approx. 10 d, 0 to 100 scale, 0 no effect, 100 complete control, read-out: Plant response rating, Wheat) was 60%. The pest or weed control at 31 g/ha ([11]; 31 g ai/ha, 0 is no effect, 100 is complete control, read-out: Ragweed plant response rating (0 to 100 scale)) was 0%, the pest or weed control at 125 g/ha ([11]; 125 g ai/ha, visual injury after approx. 10 d, 0 to 100 scale, 0 no effect, 100 complete control, read-out: Plant response rating, Ragweed) was 50% and the pest or weed control at 31 g/ha ([12]; 31 g ai/ha, 0 is no effect, 100 is complete control, read-out: Barnyardgrass plant response rating (0 to 100 scale)) was 70%. It also gave a pest or weed control at 125 g/ha ([12]; 125 g ai/ha, visual injury after approx. 10 d, 0 to 100 scale, 0 no effect, 100 complete control, read-out: Plant response rating, Barnyardgrass) of 90%, a pest or weed control at 31 g/ha ([13]; 31 g ai/ha, 0 is no effect, 100 is complete control, read-out: Galium plant response rating (0 to 100 scale)) of 20% and a pest or weed control at 125 g/ha ([13]; 125 g ai/ha, visual injury after approx. 10 d, 0 to 100 scale, 0 no effect, 100 complete control, read-out: Plant response rating, Galium) of 70%. The pest or weed control at 31 g/ha ([14]; 31 g ai/ha, 0 is no effect, 100 is complete control, read-out: Pigweed plant response rating (0 to 100 scale)) was 50%, the pest or weed control at 125 g/ha ([14]; 125 g ai/ha, visual injury after approx. 10 d, 0 to 100 scale, 0 no effect, 100 complete control, read-out: Plant response rating, Pigweed) was 60% and the pest or weed control at 31 g/ha ([15]; 31 g ai/ha, 0 is no effect, 100 is complete control, read-out: Foxtail, Giant plant response rating (0 to 100 scale)) was 70%. The pest or weed control at 125 g/ha ([15]; 125 g ai/ha, visual injury after approx. 10 d, 0 to 100 scale, 0 no effect, 100 complete control, read-out: Plant response rating, Foxtail, Giant) was 90%, the pest or weed control at 31 g/ha (Kochia (Kochia scoparia) [16]; 31 g ai/ha, 0 is no effect, 100 is complete control, read-out: Kochia plant response rating (0 to 100 scale)) was 30% and the pest or weed control at 125 g/ha (Kochia (Kochia scoparia) [16]; 125 g ai/ha, visual injury after approx. 10 d, 0 to 100 scale, 0 no effect, 100 complete control, read-out: Plant response rating, Kochia) was 70%. The pest or weed control at 31 g/ha ([17]; 31 g ai/ha, 0 is no effect, 100 is complete control, read-out: Ryegrass, Italian plant response rating (0 to 100 scale)) was 30%, the pest or weed control at 125 g/ha ([17]; 125 g ai/ha, visual injury after approx. 10 d, 0 to 100 scale, 0 no effect, 100 complete control, read-out: Plant response rating, Ryegrass, Italian) was 50% and the plant injury at 31 g/ha (corn (Zea mays); 31 g ai/ha, 0 is no effect, 100 is complete control, read-out: Corn plant response rating (0 to 100 scale)) was 20%. It also gave a Corn plant response rating (crop injury, 0 = no effect, 100 = complete kill) at 125 g/ha (corn (Zea mays); 125 g ai/ha, visual injury after approx. 10 d, 0 to 100 scale, 0 no effect, 100 complete control) of 40%, a pest or weed control at 31 g/ha ([18]; 31 g ai/ha, 0 is no effect, 100 is complete control, read-out: Blackgrass plant response rating (0 to 100 scale)) of 30% and a pest or weed control at 125 g/ha ([18]; 125 g ai/ha, visual injury after approx. 10 d, 0 to 100 scale, 0 no effect, 100 complete control, read-out: Plant response rating, Blackgrass) of 70%.
